The values below come from ChEMBL document CHEMBL1208757, “Furan based cyclic homo-oligopeptides bind G-quadruplex selectively and repress c-MYC transcription” (Bioorg Med Chem Lett, 2010).

Assay [1] has as its system HeLa. Description: Induction of apoptosis in human HeLa cell line at 200 uM after 24 hrs by annexin V/conjugated 7-AAD nexin assay. The format is functional.
Assay [2] concerns HeLa. Description: Downregulation of c-MYC gene expression in human HeLa cell line at 200 uM after 24 hrs by RT-PCR analysis. The class given is functional.
Assay [3] has as its system Nucleic Acid. The assay can be described thus: Binding affinity to 22 mer c-MYC DNA G-quadruplex assessed as change in melting temperature at 0.2 uM by FRET assay. The class given is nucleic-acid assay.
In assay [4] the test system is Nucleic Acid. The assay can be described thus: Binding affinity to 22 mer c-MYC DNA G-quadruplex assessed as change in melting temperature at 0.4 uM by FRET assay. The format is nucleic-acid assay.
Assay [5] has as its system Nucleic Acid. Description: Binding affinity to 22 mer c-MYC DNA G-quadruplex assessed as change in melting temperature at 0.8 uM by FRET assay. The class given is nucleic-acid assay.
In assay [6] the test system is Nucleic Acid. Description: Binding affinity to 22 mer c-MYC DNA G-quadruplex assessed as change in melting temperature at 1.2 uM by FRET assay. The format is nucleic-acid assay.
The test system of assay [7] is Nucleic Acid. The assay can be described thus: Binding affinity to 22 mer c-MYC DNA G-quadruplex assessed as induction of quadruplex folding at 5 to 10 uM by CD spectroscopy. The class given is nucleic-acid assay.
Another assay has as its system Calf thymus DNA. Description: Binding affinity to calf thymus DNA assessed as change in melting temperature at 0.2 to 1.6 uM by […]. The format is nucleic-acid assay. To be noted: Bos taurus.
For assay [8], the system named is Nucleic Acid. Description: Binding affinity to 22 mer c-MYC G-quadruplex by isothermal titration calorimetry. The class given is nucleic-acid assay. (In general: ITC needs no label: the signal is the heat of the interaction.)
Assay [9] deals with Nucleic Acid. Description: Binding affinity to 22 mer c-MYC G-quadruplex assessed as effect on ligand-telomeric complex formation by […]. The format is nucleic-acid assay.
The subject of assay [10] is HeLa. Description: Cytotoxicity against human HeLa cells at 100 uM after 5 days by propidium iodide staining-based flow cytometry. The class given is functional, cell-based. Background: In flow cytometry, cells or beads pass a laser one at a time.
Assay [11] concerns HeLa. Description: Downregulation of c-MYC gene expression in human HeLa cell line at 100 uM after 24 hrs by RT-PCR analysis. The format is functional.

As a reminder, the inhibition is the relative decrease from the control value, in per cent. High values mean a strong effect, low ones a weak effect. By Kd is commonly meant the concentration at which binding is half-saturated.

The source made the active and inactive calls. No cut-off for these calls is given here.

With `NCC1=C2CNC(=O)C3=CC(CN)=C(CNC(=O)c4cc(CN)c(o4)CNC(=O)C(=C1)O2)O3.O=C(O)C(F)(F)F.O=C(O)C(F)(F)F.O=C(O)C(F)(F)F`, the Activity with HeLa [1] stood at 18%. The compound further displayed an inhibition at 200 µM in the assay on HeLa [2] of 50%. For the same compound, the Tm in the assay with Nucleic Acid [3] turned out to be 2 °C; in the assay on Nucleic Acid [4], 4 °C; in the assay with Nucleic Acid [5], 6 °C; with Nucleic Acid [6] it was 8 °C. Besides, the result in the assay with Nucleic Acid [7] was Active. The result in the assay on Calf thymus DNA and with HeLa [10] was inactive. In the assay on Nucleic Acid [8], the K is 3.21 ×10⁵ /M. Further, on Nucleic Acid [9], the Kd came to 1.2 µM.
The compound `NCCC(=O)NCC1=C2CNC(=O)C3=CC(CNC(=O)CCN)=C(CNC(=O)c4cc(CNC(=O)CCN)c(o4)CNC(=O)C(=C1)O2)O3.O=C(O)C(F)(F)F.O=C(O)C(F)(F)F.O=C(O)C(F)(F)F` showed an Activity in the assay on HeLa [1] of 22%. Moreover, the inhibition at 100 µM in the assay on HeLa [11] was determined as 50%. Further, the Tm in the assay with Nucleic Acid [3] stood at 5 °C; with Nucleic Acid [4], 12 °C; in the assay on Nucleic Acid [5], 15 °C; in the assay with Nucleic Acid [6], 20 °C. In the assay with Nucleic Acid [7], the result was Active. Moreover, the result in the assay with Calf thymus DNA and in the assay with HeLa [10] was inactive. Besides, the K in the assay with Nucleic Acid [8] worked out at 5.7 ×10⁵ /M. The Kd on Nucleic Acid [9] was found to be 2.1 µM.
